What was measured:
Assay type in all cases: in vivo
[1] = test system: barnyardgrass (Echinochloa crus-galli); assay: Test A pre-/postemergence: barnyardgrass; details: for Barnyardgrass plant response rating: Postemergence; for Plant response rating, Barnyardgrass: Preemergence
In short: (§1)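 Soil medium was loam blended with sand; treatments pre- and postemergence were applied concurrently, postemergence at one- to two-leaf stage. Approximately ten days in greenhouse preceded visual comparison with untreated controls, scored 0 (no effect) to 100 (complete control).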

[2] = test system: crabgrass, large (large crabgrass, Digitaria sanguinalis); assay: Test A pre-/postemergence: crabgrass, large; details: for Crabgrass, Large plant response rating: Postemergence; for Plant response rating, Crabgrass, Large: Preemergence
In short: as §1

[3] = test system: foxtail, giant (giant foxtail, Setaria faberii); assay: Test A pre-/postemergence: foxtail, giant; details: for Foxtail, Giant plant response rating: Postemergence; for Plant response rating, Foxtail, Giant: Preemergence
In short: as §1

[4] = test system: morningglory (Ipomoea spp.); assay: Test A pre-/postemergence: morningglory
In short: as §1

[5] = test system: velvetleaf (Abutilon theophrasti); assay: Test A pre-/postemergence: velvetleaf
In short: as §1

[6] = test system: ryegrass, Italian (Italian ryegrass, Lolium multiflorum); assay: Test C pre-/postemergence: ryegrass, Italian
In short: (§2)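 Preemergence on seeds in loam/sand, postemergence on 2–18 cm (1–4-leaf) plants in peat-based medium; compounds in non-phytotoxic solvent with surfactant. After 13–15 days in greenhouse, visual rating versus controls, 0 (no effect) to 100 (complete control).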

wild oat (Avena fatua) = assay: Test C pre-/postemergence: wild oat
In short: as §2

[7] = test system: galium (catchweed bedstraw, Galium aparine); assay: Test C pre-/postemergence: galium
In short: as §2

[8] = test system: large crabgrass (Digitaria sanguinalis); assay: Test C pre-/postemergence: large crabgrass
In short: as §2

[9] = test system: nutsedge, yellow (yellow nutsedge, Cyperus esculentus); assay: Test C pre-/postemergence: nutsedge, yellow
In short: as §2

[10] = test system: chickweed (common chickweed, Stellaria media); assay: Test C postemergence: chickweed
In short: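 Pot-grown plants in peat/vermiculite medium sprayed postemergence at 2–18 cm height (1- to 4-leaf stage). Kept in greenhouse 13 to 15 days, then visually rated against untreated controls on a 0–100 scale (0 = no effect, 100 = complete control).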

[11] = 125 g ai/ha, 0 to 100 scale, 0 is no effect, 100 is complete control
[12] = 500 g ai/ha, visual rating on 0 to 100 scale (0 no effect, 100 complete control), approximately ten days
[13] = 125 g ai/ha, 0 to 100 scale where 0 is no effect and 100 is complete control
[14] = 500 g ai/ha, 0 to 100 scale (0 no effect, 100 complete control)
[15] = Postemergence, 125 g ai/ha, 0 to 100 scale, 0 is no effect, 100 is complete control
[16] = Postemergence, 500 g ai/ha, visual rating on 0 to 100 scale (0 no effect, 100 complete control), approximately ten days
[17] = Preemergence, 125 g ai/ha, 0 to 100 scale where 0 is no effect and 100 is complete control
[18] = Preemergence, 500 g ai/ha, 0 to 100 scale (0 no effect, 100 complete control)
[19] = Postemergence, 31 g ai/ha, scale 0 to 100 (0 no effect, 100 complete control)
[20] = Postemergence, 62 g ai/ha, scale 0 to 100 (0 no effect, 100 complete control)
[21] = Postemergence, 125 g ai/ha, scale 0 to 100, 0 no effect, 100 complete control
[22] = Postemergence, 250 g ai/ha, scale 0 to 100
[23] = Preemergence, 31 g ai/ha, scale of 0 to 100, 0 is no effect, 100 is complete control
[24] = Preemergence, 62 g ai/ha, scale of 0 to 100, 0 is no effect, 100 is complete control
[25] = Preemergence, 250 g ai/ha, scale 0 to 100, 0 no effect, 100 complete control
[26] = Preemergence, 125 g ai/ha, scale 0 to 100, 0 no effect, 100 complete control

SMILES: COc1nn(-c2cccc(F)c2)nc1Cc1ccnc(C(F)(F)F)c1 [Compound 139]
- Barnyardgrass plant response rating [1, 11]: 90
- Barnyardgrass plant response rating [1, 12]: 100
- Plant response rating, Barnyardgrass [1, 13]: 80
- Plant response rating, Barnyardgrass [1, 14]: 100
- Crabgrass, Large plant response rating [2, 11]: 90
- Crabgrass, Large plant response rating [2, 12]: 90
- Plant response rating, Crabgrass, Large [2, 13]: 100
- Plant response rating, Crabgrass, Large [2, 14]: 100
- Foxtail, Giant plant response rating [3, 11]: 90
- Foxtail, Giant plant response rating [3, 12]: 100
- Plant response rating, Foxtail, Giant [3, 13]: 100
- Plant response rating, Foxtail, Giant [3, 14]: 100
- Plant response rating, Morningglory [4, 15]: 80
- Morningglory plant response rating [4, 16]: 100
- Plant response rating, Morningglory [4, 17]: 50
- Plant response rating, Morningglory [4, 18]: 70
- Plant response rating, Velvetleaf [5, 15]: 90
- Velvetleaf plant response rating [5, 16]: 100
- Plant response rating, Velvetleaf [5, 17]: 30
- Plant response rating, Velvetleaf [5, 18]: 90
- Plant response rating, Ryegrass, Italian [6, 19]: 25
- Plant response rating, Ryegrass, Italian [6, 20]: 30
- Plant response rating, Ryegrass, Italian [6, 21]: 30
- Plant response rating, Ryegrass, Italian [6, 22]: 40
- Plant response rating, Ryegrass, Italian [6, 23]: 35
- Plant response rating, Ryegrass, Italian [6, 24]: 60
- Plant response rating, Ryegrass, Italian [6, 25]: 90
- Plant response rating, Oat, Wild (wild oat (Avena fatua); [19]): 40
- Plant response rating, Oat, Wild (wild oat (Avena fatua); [20]): 50
- Plant response rating, Oat, Wild (wild oat (Avena fatua); [21]): 60
- Plant response rating, Oat, Wild (wild oat (Avena fatua); [22]): 80
- Plant response rating, Oat, Wild (wild oat (Avena fatua); [23]): 10
- Plant response rating, Oat, Wild (wild oat (Avena fatua); [24]): 50
- Plant response rating, Oat, Wild (wild oat (Avena fatua); [25]): 85
- Plant response rating, Galium [7, 19]: 60
- Plant response rating, Galium [7, 20]: 70
- Plant response rating, Galium [7, 21]: 80
- Plant response rating, Galium [7, 22]: 80
- Plant response rating, Galium [7, 23]: 5
- Plant response rating, Galium [7, 24]: 80
- Plant response rating, Galium [7, 26]: 85
- Plant response rating, Galium [7, 25]: 95
- Plant response rating, Crabgrass, Large [8, 19]: 40
- Plant response rating, Crabgrass, Large [8, 20]: 45
- Plant response rating, Crabgrass, Large [8, 21]: 55
- Plant response rating, Crabgrass, Large [8, 22]: 80
- Plant response rating, Crabgrass, Large [8, 23]: 100
- Plant response rating, Crabgrass, Large [8, 24]: 100
- Plant response rating, Crabgrass, Large [8, 26]: 100
- Plant response rating, Crabgrass, Large [8, 25]: 100
- Plant response rating, Nutsedge, Yellow [9, 19]: 10
- Plant response rating, Nutsedge, Yellow [9, 20]: 10
- Plant response rating, Nutsedge, Yellow [9, 21]: 10
- Plant response rating, Nutsedge, Yellow [9, 22]: 25
- Plant response rating, Nutsedge, Yellow [9, 23]: 0
- Plant response rating, Nutsedge, Yellow [9, 24]: 0
- Plant response rating, Nutsedge, Yellow [9, 26]: 0
- Plant response rating, Nutsedge, Yellow [9, 25]: 5
- Plant response rating, Chickweed ([10]; 31 g ai/ha, scale 0 to 100 (0 no effect, 100 complete control)): 75
- Plant response rating, Chickweed ([10]; 62 g ai/ha, scale 0 to 100 (0 no effect, 100 complete control)): 98
- Plant response rating, Chickweed ([10]; 125 g ai/ha, scale 0 to 100, 0 no effect, 100 complete control): 98
- Plant response rating, Chickweed ([10]; 250 g ai/ha, scale 0 to 100): 100
